Data taken from PMC12040169 (PLOS Biology, 2025).

Assay: in vitro
Settings: human, hela cells, % viability

| Structure (SMILES) | viability at 28.5 h, 10 µM |
| --- | --- |
| O=C(Nc1ccncc1)c1snnc1-c1ccccc1 [CBK287982] | 81.4% |
| COc1ccc(OC)c(-n2cnc3c2NC(=O)CC3c2ccccc2Cl)c1 (stereo not drawn) [CBK287983] | 91.1% |
| COc1cc2ncnc(NCc3ccccc3)c2cc1OC [CBK287984] | 79.7% |
| O=C(Cn1nc(-c2ccco2)ccc1=O)Nc1ccccn1 [CBK287985] | 87.4% |
| COc1cccc(CC(=O)Nc2ccc3c(C)cc(C)nc3n2)c1 [CBK287992] | 74.1% |
| COc1ccc(CC(=O)NCC(=O)N2CCC3(CC2)NCCc2nc[nH]c23)cc1 [CBK287997] | 110% |
| COc1ccc(CCN2C(=O)N[C@@H](CCC(=O)NC3CC3)C2=O)cc1 [CBK288001] | 109% |
| O=C1Nc2ccccc2C12CC(c1ccccc1Cl)=NN2 (stereo not drawn) [CBK288004] | 111% |
| Cc1ccc(-n2c3nc(=O)n(C)c(=O)c-3cc3ccccc32)cc1 [CBK288007] | 103% |
| Cc1cc(C)cc(Cn2cc(NCc3ccccc3)c(=O)[nH]c2=O)c1 [CBK288009] | 106% |
| O=C(O)c1ccc(-c2cnc3ccccc3n2)cc1 [CBK288010] | 106% |
| CCCCn1nc2[nH]c(=O)cc(C(F)F)c2c1C [CBK288011] | 93.8% |
| COc1cccc(NC(=O)CCn2ncc(Cl)c2C)c1 [CBK288012] | 94.9% |
| O=c1cc(C(F)F)c2cn(C3CCCC3)nc2[nH]1 [CBK288016] | 91.8% |
| Cn1ncc2c(C(=O)O)cc(-c3ccccc3)nc21 [CBK288024] | 88.9% |
| Cc1ccccc1C1NC(=O)NC2=C1C(=O)N(C)C2 (stereo not drawn) [CBK288026] | 96.8% |
| CCn1c(SCC(=O)N2CCCC2)nc2cc(C)[nH]c2c1=O [CBK288027] | 99.9% |
| COc1cccc(Nc2[nH]nnc2C(=O)Nc2cccc(C)c2C)c1 [CBK288028] | 102% |
| Cc1ccccc1N1CCN(C(=O)c2nn[nH]c2Nc2ccccc2F)CC1 [CBK288032] | 101% |
| O=c1[nH]c(CNc2ccccc2)nc2ccccc12 [CBK288038] | 103% |

| Structure (SMILES) | viability at 28.5 h, 10 µM |
| --- | --- |
| Cn1c(SCc2ccccc2)nc2ccsc2c1=O [CBK288039] | 82.1% |
| O=C1NC2(CCCC2)N=C1c1ccc(Cl)cc1Cl [CBK288042] | 82.4% |
| O=c1[nH]c2c(-c3ccccc3)nnn2c2ccccc12 [CBK288047] | 98.3% |
| O=c1[nH]ccn2nc(-c3ccc4c(c3)OCO4)cc12 [CBK288048] | 87.7% |
| N#Cc1cnc2ccccc2c1N1CCC(C(=O)O)CC1 [CBK288050] | 90% |
| COc1ccc2ncc3c(-c4ccccc4)n[nH]c3c2c1 [CBK288052] | 93.3% |
| COc1cccc(CNC(=O)c2cn[nH]c2-c2cccc(C)c2)c1 [CBK288056] | 102% |
| COc1ccc(CNC(=O)c2cn[nH]c2-c2ccccc2)c(OC)c1 [CBK288057] | 100% |
| COc1ccc(C(C)NC(=O)c2cc(-c3ccc(F)cc3)[nH]n2)cc1 (stereo not drawn) [CBK288060] | 87% |
| Cc1ccc(N2CC(c3nnc(N)o3)CC2=O)cc1 (stereo not drawn) [CBK288061] | 93.8% |
| O=C1CC(c2ccccc2)n2nc(C(F)(F)F)nc2N1 (stereo not drawn) [CBK288063] | 114% |
| Cc1ccc(C2CC(c3cccnc3)Nc3nnnn32)cc1 (stereo not drawn) [CBK288067] | 97.9% |
| O=c1[nH]c(Nc2ccccc2)nc2nccc(-c3ccccc3)c12 [CBK288072] | 88.8% |
| O=C(c1nc2ncccn2n1)N1CCc2ccccc2C1 [CBK288079] | 88% |
| CC1CCc2onc(C(=O)Nc3ccncc3)c2C1 (stereo not drawn) [CBK288080] | 110% |
| Cc1nc2ccccc2n1CC(O)COc1ccccc1 (stereo not drawn) [CBK288084] | 106% |
| COc1cc(CNc2nnn[nH]2)cc(Cl)c1OC [CBK288087] | 97.8% |
| CCCn1nnc(NCc2ccc(Cl)cc2)n1 [CBK288089] | 97.2% |
| CCC(C)NCc1cccc(Oc2ncccn2)c1 (stereo not drawn) [CBK288090] | 106% |
